Laboratory results reported in patent publication US9518018B2, “3-alkoxy, thioalkyl and amino-4-amino-6-(substituted)picolinates and their use as herbicides” (Dow AgroSciences LLC, priority 2011, dated 2016).

Test system: desired test plant species
Assay: Foliar-applied postemergence herbicidal activity in direct seeded rice (Table 6)
Type: in vivo
Details: 21 DAA
From the text: Seeds or nutlets of the desired test plant species were planted in a soil matrix prepared by mixing a loam soil (43 percent silt, 19 percent clay, and 38 percent sand, with a pH of about 8.1 and an organic matter content of about 1.5 percent) and river sand in an 80 to 20 ratio. The soil matrix was contained in plastic pots with a surface area of 139.7 cm^2. When required to ensure good germination and healthy plants, a fungicide treatment and/or other chemical or physical treatment was applied. The plants were grown for 10-17 d in a greenhouse with an approximate 14-h photoperiod which was maintained at about 29° C. during the day and 26° C. during the night. Nutrients and water were added on a regular basis and supplemental lighting was provided with overhead metal halide 1000-Watt lamps as necessary. The plants were employed for testing when they reached the second or third true leaf stage. Treatments consisted of compounds 45, 34, and 66. Weighed amounts of technical compounds were placed in individual 25 mL glass vials and dissolved in 8 mL of 97:3 v/v acetone-DMSO to obtain stock solutions. […] The spray application solutions were prepared by removing 4 mL of the stock solution and diluting with 4 mL of 97:3 v/v acetone-DMSO and continued serial dilution to obtain 1⁄2×, 1⁄4×, 1⁄8×, and 1/16× rates of the high rate. Spray solutions were diluted to the appropriate final concentrations with the addition of 8 mL of an aqueous mixture of 1.875% (v/v) Agri-dex crop oil concentrate. The final 12-mL spray solutions each contained 1.25% (v/v) Agri-dex crop oil concentrate, 32.3% acetone, and 1.0% DMSO. Compound requirements are based upon a 12 mL application volume at a rate of 187 L/ha. Spray solutions were applied to the plant material with an overhead Mandel track sprayer equipped with […] nozzles calibrated to deliver 187 L/ha over an application area of 0.503 square meters (m^2) at a spray height of 18 inches ([…]) above average plant canopy height. Control plants were sprayed in the same manner with the solvent blank. The treated plants and control plants were placed in a greenhouse as described above and watered by sub-irrigation to prevent wash-off of the test compounds. After approximately 3 weeks, the condition of the test plants, compared with that of the untreated plants, was determined visually and scored on a scale of 0 to 100 percent where 0 corresponds to no injury and 100 corresponds to complete kill. By applying the well-accepted probit analysis as described by J. Berkson in Journal of the […], 48, 565 (1953) and by D. Finney in “Probit Analysis” Cambridge University Press (1952) or by plotting the mean data and fitting a logarithmic curve to the portion of the data where there was a dose response using Microsoft Excel®, the above data can be used to calculate GR50 and GR90 values, which are defined as growth reduction factors that correspond to the effective dose of herbicide required to kill or control 50 percent or 90 percent, respectively, of a target plant.

Compound: COc1c(C(=O)O)nc(-c2ccc(Cl)c(OC)c2F)c(F)c1N [Compound 45, 4-amino-6-(4-chloro-2-fluoro-3-methoxyphenyl)-5-fluoro-3-methoxypicolinic acid]
- Mean Visual Injury (%)-21 Days After Application AESSE (AESSE (Aeschynomene sensitiva, sensitive jointvetch), 4.38 g ae/ha): 100%
- Mean Visual Injury (%)-21 Days After Application AESSE (AESSE (Aeschynomene sensitiva, sensitive jointvetch), 8.75 g ae/ha): 100%
- Mean Visual Injury (%)-21 Days After Application AESSE (AESSE (Aeschynomene sensitiva, sensitive jointvetch), 17.5 g ae/ha): 100%
- Mean Visual Injury (%)-21 Days After Application AESSE (AESSE (Aeschynomene sensitiva, sensitive jointvetch), 35 g ae/ha): 100%
- Mean Visual Injury (%)-21 Days After Application AESSE (AESSE (Aeschynomene sensitiva, sensitive jointvetch), 70 g ae/ha): 100%
- GR50 AESSE (AESSE (Aeschynomene sensitiva, sensitive jointvetch), dose to kill or control 50 percent): <4.38 g ae/ha
- GR90 AESSE (AESSE (Aeschynomene sensitiva, sensitive jointvetch), dose to kill or control 90 percent): <4.38 g ae/ha
- Mean Visual Injury (%)-21 Days After Application BRAPP (BRAPP (Brachiaria platyphylla, broadleaf signalgrass), 4.38 g ae/ha): 72%
- Mean Visual Injury (%)-21 Days After Application BRAPP (BRAPP (Brachiaria platyphylla, broadleaf signalgrass), 8.75 g ae/ha): 80%
- Mean Visual Injury (%)-21 Days After Application BRAPP (BRAPP (Brachiaria platyphylla, broadleaf signalgrass), 17.5 g ae/ha): 95%
- Mean Visual Injury (%)-21 Days After Application BRAPP (BRAPP (Brachiaria platyphylla, broadleaf signalgrass), 35 g ae/ha): 95%
- Mean Visual Injury (%)-21 Days After Application BRAPP (BRAPP (Brachiaria platyphylla, broadleaf signalgrass), 70 g ae/ha): 98%
- GR50 BRAPP (BRAPP (Brachiaria platyphylla, broadleaf signalgrass), dose to kill or control 50 percent): <4.38 g ae/ha
- GR90 BRAPP (BRAPP (Brachiaria platyphylla, broadleaf signalgrass), dose to kill or control 90 percent): 22.0 g ae/ha
- Mean Visual Injury (%)-21 Days After Application CYPDI (CYPDI (Cyperus difformis, small-flower flatsedge), 4.38 g ae/ha): 75%
- Mean Visual Injury (%)-21 Days After Application CYPDI (CYPDI (Cyperus difformis, small-flower flatsedge), 8.75 g ae/ha): 97%
- Mean Visual Injury (%)-21 Days After Application CYPDI (CYPDI (Cyperus difformis, small-flower flatsedge), 17.5 g ae/ha): 98%
- Mean Visual Injury (%)-21 Days After Application CYPDI (CYPDI (Cyperus difformis, small-flower flatsedge), 35 g ae/ha): 100%
- Mean Visual Injury (%)-21 Days After Application CYPDI (CYPDI (Cyperus difformis, small-flower flatsedge), 70 g ae/ha): 100%
- GR50 CYPDI (CYPDI (Cyperus difformis, small-flower flatsedge), dose to kill or control 50 percent): <4.38 g ae/ha
- GR90 CYPDI (CYPDI (Cyperus difformis, small-flower flatsedge), dose to kill or control 90 percent): 8.8 g ae/ha
- Mean Visual Injury (%)-21 Days After Application CYPES (CYPES (Cyperus esculentus, yellow nutsedge), 4.38 g ae/ha): 73%
- Mean Visual Injury (%)-21 Days After Application CYPES (CYPES (Cyperus esculentus, yellow nutsedge), 8.75 g ae/ha): 78%
- Mean Visual Injury (%)-21 Days After Application CYPES (CYPES (Cyperus esculentus, yellow nutsedge), 17.5 g ae/ha): 85%
- Mean Visual Injury (%)-21 Days After Application CYPES (CYPES (Cyperus esculentus, yellow nutsedge), 35 g ae/ha): 99%
- Mean Visual Injury (%)-21 Days After Application CYPES (CYPES (Cyperus esculentus, yellow nutsedge), 70 g ae/ha): 95%
- GR50 CYPES (CYPES (Cyperus esculentus, yellow nutsedge), dose to kill or control 50 percent): <4.38 g ae/ha
- GR90 CYPES (CYPES (Cyperus esculentus, yellow nutsedge), dose to kill or control 90 percent): 27.1 g ae/ha
- Mean Visual Injury (%)-21 Days After Application CYPIR (CYPIR (Cyperus iria, rice flatsedge), 4.38 g ae/ha): 95%
- Mean Visual Injury (%)-21 Days After Application CYPIR (CYPIR (Cyperus iria, rice flatsedge), 8.75 g ae/ha): 97%
- Mean Visual Injury (%)-21 Days After Application CYPIR (CYPIR (Cyperus iria, rice flatsedge), 17.5 g ae/ha): 100%
- Mean Visual Injury (%)-21 Days After Application CYPIR (CYPIR (Cyperus iria, rice flatsedge), 35 g ae/ha): 100%
- Mean Visual Injury (%)-21 Days After Application CYPIR (CYPIR (Cyperus iria, rice flatsedge), 70 g ae/ha): 100%
- GR50 CYPIR (CYPIR (Cyperus iria, rice flatsedge), dose to kill or control 50 percent): <4.38 g ae/ha
- GR90 CYPIR (CYPIR (Cyperus iria, rice flatsedge), dose to kill or control 90 percent): <4.38 g ae/ha
- Mean Visual Injury (%)-21 Days After Application ECHCG (ECHCG (Echinochloa crus-galli, barnyardgrass), 4.38 g ae/ha): 92%
- Mean Visual Injury (%)-21 Days After Application ECHCG (ECHCG (Echinochloa crus-galli, barnyardgrass), 8.75 g ae/ha): 92%
- Mean Visual Injury (%)-21 Days After Application ECHCG (ECHCG (Echinochloa crus-galli, barnyardgrass), 17.5 g ae/ha): 95%
- Mean Visual Injury (%)-21 Days After Application ECHCG (ECHCG (Echinochloa crus-galli, barnyardgrass), 35 g ae/ha): 98%
- Mean Visual Injury (%)-21 Days After Application ECHCG (ECHCG (Echinochloa crus-galli, barnyardgrass), 70 g ae/ha): 100%
- GR50 ECHCG (ECHCG (Echinochloa crus-galli, barnyardgrass), dose to kill or control 50 percent): <4.38 g ae/ha
- GR90 ECHCG (ECHCG (Echinochloa crus-galli, barnyardgrass), dose to kill or control 90 percent): <4.38 g ae/ha
